According to patent publication US7517889B2, “2,6-substituted-4-monosubstitutedamino-pyrimidine as prostaglandin D2 receptor antagonists” (Aventis Pharmaceuticals, Inc., priority 2004, dated 2009):
Where a name gives a salt, the structure may show the parent alone.

Target: T1, DP receptor (Homo sapiens, UniProt Q13258)
T1 construct: the human cell line LS174T, which expresses the endogenous DP receptor; endogenous in cells; host or cells: LS174T human cell line
T1 sequence (Q13258 1-359): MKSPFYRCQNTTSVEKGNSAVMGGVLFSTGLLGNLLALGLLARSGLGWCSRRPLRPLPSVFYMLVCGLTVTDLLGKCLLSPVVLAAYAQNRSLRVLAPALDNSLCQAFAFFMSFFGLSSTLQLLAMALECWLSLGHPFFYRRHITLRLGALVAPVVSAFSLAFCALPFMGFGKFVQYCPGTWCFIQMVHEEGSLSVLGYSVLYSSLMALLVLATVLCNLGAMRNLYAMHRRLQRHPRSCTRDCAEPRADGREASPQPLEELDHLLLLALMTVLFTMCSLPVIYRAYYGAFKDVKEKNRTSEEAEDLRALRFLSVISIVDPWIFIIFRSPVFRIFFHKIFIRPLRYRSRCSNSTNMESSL
Assay: SPA cAMP assay in human LS174 T cells (human DP functional assay)
Type: cell-based
Details: inhibition of PGD2 (15 nM final) stimulated cAMP, LS174T cells expressing endogenous DP receptor
Experimental: The inhibitory effects of the compounds according to the invention are assessed in a human DP functional assay. A cAMP assay is employed using the human cell line LS174T, which expresses the endogenous DP receptor.
Protocol for SPA cAMP Assay in Human LS174 T Cells
• 1) Add equal volumes of tracer, antiserum and SPA anti-rabbit reagent to a bottle, ensuring that a sufficient volume of this mixture is prepared for the desired number of wells (150 μL/well). • 2) Mix thoroughly. • 3) This immunoreagent solution should be freshly prepared before each assay and not re-used.
Add 50 μL of […] IBMX into 100 mL PBS to make a final concentration of 100 μM and sonicate at 30° C. for 20 minutes.
Before each assay, it is freshly prepared. Add 3 μL of 10 mM stock solution to 20 mL DMSO, mix it thoroughly, and transfer 10 mL to 40 mL PBS.
Compound dilution is carried out in Biomex 2000 (Beckman) using Method 1_cAMP DP 11 points.
5 μL of each compound from the 10 mM stock compound plates is transferred to the wells of a 96-well plate respectively as below.
Fill the plate with 45 μL of DMSO except column 7 is filled with 28 μL DMSO. Pipette column 1 thoroughly, and transfer 12 μL into column 7 parallel. Perform 1:10 serial dilution from column 1 to column 6 and from column 7 to column 11 by transfer 5 μL to 45 μL DMSO to make following concentrations:
Fill a new 96-well plate with 247.5 μL of compound dilution buffer. Transfer 2.5 μL of serially diluted compounds from above plate to the new plate (1:100 dilution) as following:
Cell Growth • 1. […] Remove growth medium from cells. Cells in T165 flask are washed twice with 4 mL Trypsin followed by incubation at 37° C. and 5% CO2 for 3 minutes. • 4. Add 10 mL of medium and pipette thoroughly to separate the cells and count the cells. • 5. […] Assay Procedure Day 1 • Seed 45,000 cells/well in 200 μL medium in 96-well plates. Incubate the cell plate at 37° C., 5% CO2 and 95% humidity overnight. Day 2 • 1. Perform compound dilution. • 2. Prepare assay buffer, lysis buffer 1 & 2, PGD2 and standard. • 3. Aspirate media from the cells and add 100 μL of compound solution using Zymark Sciclone-ALH/FD protocol cAMP DP. • 4. Incubate the cells at 37° C., 5% CO2 and 95% humidity for 15 minutes. • 5. […] Aspirate media from the cells and add 50 μL of lysis buffer 1 using Zymark protocol cAMP DP lysis, and incubate at room temperature with shaking for 30 minutes. • 7. Add 150 μL immunoreagent to all wells (a total volume of 200 μL/well). • 8. Seal the plates and shake for 2 minutes, put into the chamber of the Wallac microtitre plate μ scintillation counter for 16 hours. […] Data Processing Set up standard curve of cAMP versus CPM.
The cAMP concentrations (pmol/mL) of unknown samples are calculated from a standard curve of cAMP versus CPM. % inhibition is calculated using the following formula: […]

`COc1nc(NCCc2ccc(C(F)(F)F)cc2F)cc(-c2ccc3[nH]cc(CC(=O)O)c3c2)n1` [Example 52, (5-{6-[2-(2-Fluoro-4-trifluoromethyl-phenyl)-ethylamino]-2-methoxy-pyrimidin-4-yl}-1H-indol-3-yl)-acetic acid] and `COc1nc(NCCc2ccc(Cl)cc2Cl)cc(-c2cccc(C(C)(C)C(=O)O)c2)n1` [Example 15(d), 2-(3-{6-[2-(2,4-Dichloro-phenyl)-ethylamino]-2-methoxy-pyrimidin-4-yl}-phenyl)-2-methyl-propionic acid hydrochloride] are within 1.5-fold of each other in IC50: 0.4 nM for the first, 0.3 nM for the second.

Going from `COc1ccc(CCNc2cc(-c3ccc(F)c(CN)c3)nc(OC)n2)cc1` [Example 27, [6-(3-Aminomethyl-4-fluoro-phenyl)-2-methoxy-pyrimidin-4-yl]-[2-(4-methoxy-phenyl)-ethyl]-amine hydrochloride] to `COc1ccc(CCNc2cc(-c3cccc(O)c3)nc(OC)n2)cc1` [Example 15(a), 3-{2-Methoxy-6-[2-(4-methoxy-phenyl)-ethylamino]-pyrimidin-4-yl}-phenol hydrochloride], the IC50 falls from 41 nM to 0.1 nM (410-fold). The second is the more potent here.

Compared with `COc1nc(NC2CCc3ccccc32)cc(-c2cccc(C(C)(C)C(=O)O)c2)n1` (stereo not drawn) [Example 83(a), 2-{3-[6-(Indan-1-ylamino)-2-methoxy-pyrimidin-4-yl]-phenyl}-2-methyl-propionic acid], `COc1nc(NCC2CN(C)c3ccccc3O2)cc(-c2cccc(C(C)(C)C(=O)O)c2)n1` (stereo not drawn) [Example 92, 2-(3-{2-Methoxy-6-[(4-methyl-3,4-dihydro-2H-benzo[1,4]oxazin-2-ylmethyl)-amino]-pyrimidin-4-yl}-phenyl)-2-methyl-propionic acid] is 3.3-fold higher in IC50: 83 nM for the first, 278 nM for the second. The first is the more potent here.

First: COc1ccc(CCNc2cc(-c3cccc(Cc4nnn[nH]4)c3)nc(OC)n2)cc1 [Example 24(b), [2-(4-Methoxy-phenyl)-ethyl]-{2-methoxy-6-[3-(1H-tetrazol-5-ylmethyl)-phenyl]-pyrimidin-4-yl}-amine hydrochloride]
Second: COc1ccc(CCNc2cc(-c3cccc(CC#N)c3)nc(OC)n2)cc1 [Example 35(s), (3-{2-Methoxy-6-[2-(4-methoxy-phenyl)-ethylamino]-pyrimidin-4-yl}-phenyl)-acetonitrile]
The IC50 of the first is 60-fold lower: 0.1 nM for the first, 6 nM for the second. The first is the more potent here.

First: CCOC(=O)c1cccc(-c2cc(NCCc3ccc(Cl)cc3Cl)nc(OC)n2)c1 [Example 77, 3-{6-[2-(2,4-Dichloro-phenyl)-ethylamino]-2-methoxy-pyrimidin-4-yl}-benzoic acid ethyl ester]
Second: COc1nc(NCCc2ccc(Cl)cc2Cl)cc(-c2cccc(C(C)(C)C(=O)N3CCOCC3)c2)n1 [Example 95(c), 2-(3-{6-[2-(2,4-Dichloro-phenyl)-ethylamino]-2-methoxy-pyrimidin-4-yl}-phenyl)-2-methyl-1-morpholin-4-yl-propan-1-one]
The IC50 of the first is 1.9-fold lower: 149 nM for the first, 281 nM for the second.

First: COc1ccc(CCNc2cc(-c3cccc(OC)c3)nc(N(C)C)n2)cc1 [Example 19, 6-(3-Methoxy-phenyl)-N*4*-[2-(4-methoxy-phenyl)-ethyl]-N*2*,N*2*-dimethyl-pyrimidine-2,4-diamine hydrochloride]
Second: COc1ccc(CCNc2cc(-c3ccc4cn[nH]c4c3)nc(OC)n2)cc1 [Example 53(b), [6-(1H-Indazol-6-yl)-2-methoxy-pyrimidin-4-yl]-[2-(4-methoxy-phenyl)-ethyl]-amine]
The IC50 of the first is 4900-fold higher: 4650 nM for the first, 0.95 nM for the second.

Going from `COc1ccc(CCNc2cc(-c3ccc4ncccc4c3)nc(OC)n2)cc1` [Example 10(a), [2-(4-Methoxy-phenyl)-ethyl]-(2-methoxy-6-quinolin-6-yl-pyrimidin-4-yl)-amine] to `COc1ccc(CCNc2cc(-c3cccc4cnccc34)nc(OC)n2)cc1` [Example 8(g), (6-Isoquinolin-5-yl-2-methoxy-pyrimidin-4-yl)-[2-(4-methoxy-phenyl)-ethyl]-amine], the IC50 rises from 0.6 nM to 64 nM (110-fold). The first is the more potent here.

First: COc1nc(NCCc2ccc(OC(F)F)cc2)cc(-c2cccc(S(C)(=O)=O)c2)n1 [example 46(d), [2-(4-Difluoromethoxy-phenyl)-ethyl]-[6-(3-methanesulfonyl-phenyl)-2-methoxy-pyrimidin-4-yl]-amine hydrochloride]
Second: COc1ccc(CCNc2cc(-c3ccc(C(F)F)s3)nc(OC)n2)cc1 [Example 12, [6-(5-Difluoromethyl-thiophen-2-yl)-2-methoxy-pyrimidin-4-yl]-[2-(4-methoxy-phenyl)-ethyl]-amine]
The IC50 of the first is 1.5-fold higher: 17 nM for the first, 11 nM for the second.

First: COc1ccc(CCNc2cc(-c3cc4ccccc4s3)nc(OC)n2)cc1 [Example 10(g), (6-Benzo[b]thiophen-2-yl-2-methoxy-pyrimidin-4-yl)-[2-(4-methoxy-phenyl)-ethyl]-amine]
Second: COc1ccc(CCNc2cc(-c3ccccc3O)nc(OC)n2)cc1 [Example 35(r), 2-{2-Methoxy-6-[2-(4-methoxy-phenyl)-ethylamino]-pyrimidin-4-yl}-phenol]
The IC50 of the first is 3.3-fold lower: 5.1 nM for the first, 17 nM for the second. The first is the more potent here.

First: CCOC(=O)c1cc(-c2cc(NCCc3ccc(OC)cc3)nc(OC)n2)ccc1Cl [Example 35(z), 2-Chloro-5-{2-methoxy-6-[2-(4-methoxy-phenyl)-ethylamino]-pyrimidin-4-yl}-benzoic acid ethyl ester]
Second: COc1ccc(CCNc2cc(-c3ccc(OC)nc3)nc(OC)n2)cc1 [Example 35(o), [2-Methoxy-6-(6-methoxy-pyridin-3-yl)-pyrimidin-4-yl]-[12-(4-methoxy-phenyl)-ethyl]-amine]
The IC50 of the first is 19-fold higher: 32 nM for the first, 1.7 nM for the second. The second is the more potent here.

Compared with `COc1nc(NCCc2ccc3c(c2)OC(F)(F)O3)cc(-c2ccc[n+]([O-])c2)n1` [Example 21(b), [2-(2,2-Difluoro-benzo[1,3]dioxol-5-yl)-ethyl]-[2-methoxy-6-(1-oxy-pyridin-3-yl)-pyrimidin-4-yl]-amine], `COc1ccc(CCNc2cc(-c3nnc(C)o3)nc(OC)n2)cc1` [Example 44, [2-Methoxy-6-(5-methyl-[-1,3,4]oxadiazol-2-yl)-pyrimidin-4-yl]-[2-(4-methoxy-phenyl)-ethyl]-amine] is 39-fold lower in IC50: 2150 nM for the first, 55 nM for the second.

Compared with `COc1nc(NCCc2ccc(Cl)cc2Cl)cc(N2CCC(C(=O)O)CC2)n1` [Example 97, 1-{6-[2-(2,4-Dichloro-phenyl)-ethylamino]-2-methoxy-pyrimidin-4-yl}-piperidine-4-carboxylic acid], `COc1nc(NCCc2ccc(Cl)cc2Cl)cc(-c2ccc(C(=O)O)s2)n1` [Example 87, 5-{6-[2-(2,4-Dichloro-phenyl)-ethylamino]-2-methoxy-pyrimidin-4-yl}-thiophene-2-carboxylic acid] is 44-fold lower in IC50: 7 nM for the first, 0.16 nM for the second. The second is the more potent here.

Compared with `COc1nc(NCCc2ccc(Cl)cc2Cl)cc(-c2cccc(C3(C(=O)O)CCOCC3)c2)n1` [Example 80(a), 4-(3-{6-[2-(2,4-Dichloro-phenyl)-ethylamino]-2-methoxy-pyrimidin-4-yl}-phenyl)-tetrahydro-pyran-4-carboxylic acid], `COc1ccc(CCNc2cc(-c3cccc(CNCCc4ccc(O)cc4)c3)nc(OC)n2)cc1` [Example 13(c), 4-[2-(3-{2-Methoxy-6-[2-(4-methoxy-phenyl)-ethylamino]-pyrimidin-4-yl}-benzylamino)-ethyl]-phenol hydrochloride] is 200-fold higher in IC50: 0.05 nM for the first, 10 nM for the second.

Work on `COc1ccc(CCNc2cc(-c3c(C)noc3C)nc(OC)n2)cc1` [Example 8(d), [6-(3,5-Dimethyl-isoxazol-4-yl)-2-methoxy-pyrimidin-4-yl]-[2-(4-methoxy-phenyl)-ethyl]-amine] yielded an IC50 of 1.9 nM.
